Results on eight compounds are retold here after ChEMBL document CHEMBL3397036, “Novel tail and head group prostamide probes” (Bioorg Med Chem Lett, 2015).

By Ki is commonly meant a measure of affinity in units of concentration, obtained from inhibition or displacement. The term IC50 denotes the concentration needed to halve the response being measured. A lower IC50 goes with greater potency.

For assay [1], the target named is T1, Cannabinoid receptor 1 (Rattus norvegicus, UniProt P20272). Kind of assay: Displacement of [3H]CP-55,940 from CB1 receptor in rat brain homogenates in absence of phenylmethanesulfonyl fluoride. The format is tissue-based. (In a radioligand displacement assay an active substance lowers the binding of a labelled ligand.)
T1 sequence (P20272 whole entry): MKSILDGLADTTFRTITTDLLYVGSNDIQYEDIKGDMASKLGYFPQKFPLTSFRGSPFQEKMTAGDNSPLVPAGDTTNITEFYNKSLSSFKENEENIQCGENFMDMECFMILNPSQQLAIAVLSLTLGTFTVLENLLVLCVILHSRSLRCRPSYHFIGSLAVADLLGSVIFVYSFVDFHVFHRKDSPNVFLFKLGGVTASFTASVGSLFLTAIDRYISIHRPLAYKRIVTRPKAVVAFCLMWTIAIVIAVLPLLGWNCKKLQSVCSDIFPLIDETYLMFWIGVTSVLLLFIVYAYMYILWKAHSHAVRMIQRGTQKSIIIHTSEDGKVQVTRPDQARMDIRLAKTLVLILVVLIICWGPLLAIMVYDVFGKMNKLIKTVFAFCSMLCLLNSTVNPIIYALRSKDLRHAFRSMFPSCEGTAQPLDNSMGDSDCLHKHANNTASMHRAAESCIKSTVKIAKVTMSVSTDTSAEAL
Assay [2] concerns the target T2, N-acylethanolamine-hydrolyzing acid amidase (Homo sapiens, UniProt Q02083).
T2 sequence (Q02083 whole entry): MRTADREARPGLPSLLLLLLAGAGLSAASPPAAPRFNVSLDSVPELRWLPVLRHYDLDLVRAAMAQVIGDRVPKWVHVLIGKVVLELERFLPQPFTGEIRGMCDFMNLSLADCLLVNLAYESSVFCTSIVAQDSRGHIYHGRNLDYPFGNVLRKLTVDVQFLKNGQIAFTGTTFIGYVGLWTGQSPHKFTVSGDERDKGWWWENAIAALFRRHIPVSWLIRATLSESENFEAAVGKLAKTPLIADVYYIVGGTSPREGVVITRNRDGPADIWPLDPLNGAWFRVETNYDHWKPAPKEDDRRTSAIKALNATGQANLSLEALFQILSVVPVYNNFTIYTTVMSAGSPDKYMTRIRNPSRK
Put plainly: Inhibition of human NAAA.

The target of assay [3] is T3, Fatty-acid amide hydrolase 1 (Rattus norvegicus, UniProt P97612).
T3 sequence (P97612 whole entry): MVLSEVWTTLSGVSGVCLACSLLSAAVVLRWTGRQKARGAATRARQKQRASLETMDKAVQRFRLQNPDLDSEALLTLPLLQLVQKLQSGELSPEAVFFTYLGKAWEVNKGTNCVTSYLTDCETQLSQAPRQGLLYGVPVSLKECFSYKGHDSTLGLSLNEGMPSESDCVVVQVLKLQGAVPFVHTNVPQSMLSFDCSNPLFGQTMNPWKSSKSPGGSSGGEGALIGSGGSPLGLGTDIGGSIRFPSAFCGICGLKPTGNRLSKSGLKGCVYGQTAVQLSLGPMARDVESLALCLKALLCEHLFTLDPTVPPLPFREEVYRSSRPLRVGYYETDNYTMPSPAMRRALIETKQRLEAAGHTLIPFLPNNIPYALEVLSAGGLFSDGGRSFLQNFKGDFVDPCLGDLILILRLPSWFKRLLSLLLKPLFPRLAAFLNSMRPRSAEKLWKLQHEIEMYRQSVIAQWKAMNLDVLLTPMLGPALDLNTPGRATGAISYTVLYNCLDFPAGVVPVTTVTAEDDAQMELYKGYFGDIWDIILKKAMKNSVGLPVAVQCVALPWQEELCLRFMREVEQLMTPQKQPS
Kind of assay: Inhibition of rat FAAH.

Assay [4] deals with Cannabinoid receptor 2 (Mus musculus, UniProt P47936). Put plainly: Displacement of [3H]CP-55,940 from mouse CB2 receptor expressed in HEK293 cells. The format is cell-based.
Chain of Cannabinoid receptor 2 (Mus musculus, UniProt P47936) (P47936 whole entry): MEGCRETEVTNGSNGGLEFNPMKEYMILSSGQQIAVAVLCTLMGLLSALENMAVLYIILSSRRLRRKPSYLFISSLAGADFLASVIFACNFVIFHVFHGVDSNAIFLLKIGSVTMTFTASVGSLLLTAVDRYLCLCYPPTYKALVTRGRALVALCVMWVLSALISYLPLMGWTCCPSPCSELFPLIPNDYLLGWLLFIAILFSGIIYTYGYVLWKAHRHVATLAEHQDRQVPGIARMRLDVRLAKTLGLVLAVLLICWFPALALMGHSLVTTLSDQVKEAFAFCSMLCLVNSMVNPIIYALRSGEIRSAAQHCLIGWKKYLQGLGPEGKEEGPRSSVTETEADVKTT
For another assay, the target named is T4, Monoglyceride lipase (Homo sapiens, UniProt Q99685).
T4 sequence (Q99685 whole entry): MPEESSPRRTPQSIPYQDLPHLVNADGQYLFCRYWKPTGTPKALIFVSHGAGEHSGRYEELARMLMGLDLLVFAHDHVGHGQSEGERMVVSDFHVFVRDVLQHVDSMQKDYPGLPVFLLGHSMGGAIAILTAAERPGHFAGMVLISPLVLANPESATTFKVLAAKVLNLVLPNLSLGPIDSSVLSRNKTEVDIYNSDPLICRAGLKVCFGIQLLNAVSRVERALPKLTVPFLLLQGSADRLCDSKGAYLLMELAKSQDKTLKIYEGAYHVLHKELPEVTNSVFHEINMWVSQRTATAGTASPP
Put plainly: Inhibition of human MGL.

In assay [5] the target is T1, Cannabinoid receptor 1. Put plainly: Displacement of [3H]CP-55,940 from CB1 receptor in rat brain homogenates in presence of phenylmethanesulfonyl fluoride. It counts as tissue-based.
The target in assay [6] is Cannabinoid receptor 2 (Homo sapiens, UniProt P34972). Put plainly: Displacement of [3H]CP-55,940 from human CB2 receptor expressed in HEK293 cells. The format is cell-based.
Chain of Cannabinoid receptor 2 (Homo sapiens, UniProt P34972) (P34972 whole entry): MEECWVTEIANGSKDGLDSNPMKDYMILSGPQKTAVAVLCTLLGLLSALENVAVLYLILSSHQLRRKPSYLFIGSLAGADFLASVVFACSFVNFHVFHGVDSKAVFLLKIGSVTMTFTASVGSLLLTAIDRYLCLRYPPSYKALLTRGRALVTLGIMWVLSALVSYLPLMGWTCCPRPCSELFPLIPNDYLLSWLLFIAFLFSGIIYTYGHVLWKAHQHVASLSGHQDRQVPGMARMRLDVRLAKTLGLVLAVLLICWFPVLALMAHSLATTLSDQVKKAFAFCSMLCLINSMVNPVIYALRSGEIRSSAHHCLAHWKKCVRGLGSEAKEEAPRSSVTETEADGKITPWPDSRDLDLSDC
For assay [7], the target named is T5, Fatty-acid amide hydrolase 1 (Homo sapiens, UniProt O00519).
T5 sequence (O00519 whole entry): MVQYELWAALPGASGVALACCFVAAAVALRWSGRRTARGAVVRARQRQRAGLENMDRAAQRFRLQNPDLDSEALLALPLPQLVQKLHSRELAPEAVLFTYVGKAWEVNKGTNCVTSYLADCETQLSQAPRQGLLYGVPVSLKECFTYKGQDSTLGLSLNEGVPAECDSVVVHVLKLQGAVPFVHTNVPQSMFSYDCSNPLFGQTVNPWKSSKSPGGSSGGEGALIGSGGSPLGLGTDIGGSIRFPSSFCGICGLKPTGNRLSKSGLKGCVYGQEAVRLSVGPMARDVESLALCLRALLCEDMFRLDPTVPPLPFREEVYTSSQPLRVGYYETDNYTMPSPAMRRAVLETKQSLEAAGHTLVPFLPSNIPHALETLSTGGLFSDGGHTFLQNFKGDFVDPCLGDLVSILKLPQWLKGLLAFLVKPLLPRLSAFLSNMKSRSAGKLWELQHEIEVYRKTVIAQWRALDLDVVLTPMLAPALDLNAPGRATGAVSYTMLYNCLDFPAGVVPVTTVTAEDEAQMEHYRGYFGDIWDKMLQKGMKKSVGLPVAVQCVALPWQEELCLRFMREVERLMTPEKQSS
Kind of assay: Inhibition of human FAAH.

For assay [8], the target named is T6, Prostaglandin E2 receptor EP3 subtype (Homo sapiens) (UniProt P43115).
T6 sequence (whole entry): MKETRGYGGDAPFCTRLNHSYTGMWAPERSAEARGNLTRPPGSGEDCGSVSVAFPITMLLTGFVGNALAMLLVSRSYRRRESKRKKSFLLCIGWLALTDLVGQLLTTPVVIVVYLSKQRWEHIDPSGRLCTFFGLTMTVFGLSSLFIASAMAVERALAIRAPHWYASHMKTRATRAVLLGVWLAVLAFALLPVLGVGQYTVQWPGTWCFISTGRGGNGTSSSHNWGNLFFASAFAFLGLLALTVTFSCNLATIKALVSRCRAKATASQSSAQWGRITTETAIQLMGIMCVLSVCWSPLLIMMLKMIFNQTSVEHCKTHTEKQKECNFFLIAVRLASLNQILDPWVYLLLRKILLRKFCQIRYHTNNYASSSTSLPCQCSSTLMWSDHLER
Put plainly: Activity at recombinant EP3 receptor (unknown origin) expressed in CHO cells co-expressing Gi protein at 100 nM by electrical cell substrate impedance sensing system. It counts as cell-based.

In assay [9] the target is T7, Prostaglandin E2 receptor EP1 subtype (Homo sapiens) (UniProt P34995).
T7 sequence (whole entry): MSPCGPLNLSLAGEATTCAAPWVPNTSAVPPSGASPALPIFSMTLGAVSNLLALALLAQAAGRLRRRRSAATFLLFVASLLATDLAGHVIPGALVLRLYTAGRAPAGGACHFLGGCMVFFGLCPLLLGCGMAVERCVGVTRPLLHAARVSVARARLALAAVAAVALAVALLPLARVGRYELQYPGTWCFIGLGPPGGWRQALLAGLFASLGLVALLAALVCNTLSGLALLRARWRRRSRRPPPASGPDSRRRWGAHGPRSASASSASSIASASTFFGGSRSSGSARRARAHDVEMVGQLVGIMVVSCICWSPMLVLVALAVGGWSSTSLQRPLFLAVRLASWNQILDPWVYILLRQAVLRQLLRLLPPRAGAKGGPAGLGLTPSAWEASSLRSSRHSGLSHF
Kind of assay: Activity at recombinant EP1 receptor (unknown origin) expressed in CHO cells co-expressing Gq protein at 100 nM by electrical cell substrate impedance sensing system. It counts as cell-based.

Assay [10] has as its target Prostaglandin E2 receptor EP4 subtype (Homo sapiens) (UniProt P35408). Put plainly: Activity at recombinant EP4 receptor (unknown origin) expressed in CHO cells co-expressing Gs protein at 100 nM by electrical cell substrate impedance sensing system. The format is cell-based.

Structures are written as SMILES. Active and inactive are the calls of the source. The rule behind the calls is not given here.

Chain of Prostaglandin E2 receptor EP4 subtype (Homo sapiens) (P35408 whole entry): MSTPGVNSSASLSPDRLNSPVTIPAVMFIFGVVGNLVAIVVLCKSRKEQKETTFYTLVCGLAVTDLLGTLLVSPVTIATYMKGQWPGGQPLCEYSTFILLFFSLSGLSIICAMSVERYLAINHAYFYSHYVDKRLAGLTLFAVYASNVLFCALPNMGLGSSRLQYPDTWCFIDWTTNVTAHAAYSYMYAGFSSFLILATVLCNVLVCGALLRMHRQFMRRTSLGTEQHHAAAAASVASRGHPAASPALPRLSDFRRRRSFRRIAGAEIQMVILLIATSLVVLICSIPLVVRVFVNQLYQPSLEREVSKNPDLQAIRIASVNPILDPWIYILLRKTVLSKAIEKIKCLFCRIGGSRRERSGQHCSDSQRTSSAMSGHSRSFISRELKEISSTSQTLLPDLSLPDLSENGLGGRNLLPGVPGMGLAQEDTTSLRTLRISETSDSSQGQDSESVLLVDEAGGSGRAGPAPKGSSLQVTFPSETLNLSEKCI

With `C[C@H](CO)NC(=O)CCC/C=C\C[C@H]1C(=O)C[C@@H](O)[C@@H]1/C=C/[C@@H](O)CCc1ccccc1`, the Ki on Cannabinoid receptor 1 [1] is 770 nM; at Cannabinoid receptor 2 [4], more than 1000 nM; at Cannabinoid receptor 1 [5], 730 nM; at Cannabinoid receptor 2 [6], more than 1000 nM. For the same compound, the half-maximal inhibitory concentration (IC50) (in assay [2]; in assay [3]; against Monoglyceride lipase; in assay [7]) was more than 100000 nM each time.
In the case of `O=C(CCC/C=C\C[C@H]1C(=O)C[C@@H](O)[C@@H]1/C=C/[C@@H](O)CCc1ccc(I)cc1)NCCO`, the Ki on Cannabinoid receptor 1 [1] is 830 nM; on Cannabinoid receptor 2 [4] it was more than 1000 nM; on Cannabinoid receptor 1 [5], 620 nM; at Cannabinoid receptor 2 [6], more than 1000 nM. Moreover, the IC50 (in assay [2]; in [3]; on Monoglyceride lipase; in assay [7]) was more than 100000 nM in each case.
Consider `O=C(CCC/C=C\C[C@H]1C(=O)C[C@@H](O)[C@@H]1/C=C/[C@@H](O)CCc1ccccc1)NCCO`, for which the inhibition constant (Ki) on Cannabinoid receptor 1 [1], on Cannabinoid receptor 2 [4], on Cannabinoid receptor 1 [5] and on Cannabinoid receptor 2 [6] was more than 1000 nM throughout. The half-maximal inhibitory concentration (IC50) in assay [2] is more than 100000 nM; in [3], more than 100000 nM; on Monoglyceride lipase, 100000 nM; in [7], more than 100000 nM. For the same compound, the result in assay [8], in assay [9] and in assay [10] was inactive.
In the case of `C[C@@H](CO)NC(=O)CCC/C=C\C[C@H]1C(=O)C[C@@H](O)[C@@H]1/C=C/[C@@H](O)CCc1ccccc1`, the Ki at Cannabinoid receptor 1 [1] is more than 1000 nM; at Cannabinoid receptor 2 [4], more than 1000 nM; on Cannabinoid receptor 1 [5] it was 950 nM; on Cannabinoid receptor 2 [6], more than 1000 nM. In addition, the half-maximal inhibitory concentration (IC50) (in assay [2]; in [3]; on Monoglyceride lipase; in [7]) was more than 100000 nM each time.
On to `O=C(CCC/C=C\C[C@H]1C(=O)C[C@@H](O)[C@@H]1/C=C/[C@@H](O)CCc1ccccc1)NCCCO`, for which the inhibitory constant (Ki) on Cannabinoid receptor 1 [1], on Cannabinoid receptor 2 [4], at Cannabinoid receptor 1 [5] and at Cannabinoid receptor 2 [6] was more than 1000 nM in each case. For the same compound, the IC50 (in assay [2]; in [3]; against Monoglyceride lipase; in assay [7]) was more than 100000 nM in each case.
With `CCCCC[C@H](O)/C=C/[C@H]1[C@H](O)CC(=O)[C@@H]1C/C=C\CCCC(=O)NCCO`, the result in assay [8], in assay [9] and in [10] was inactive.
Take `O=C(CCC/C=C\C[C@H]1C(=O)C[C@@H](O)[C@@H]1/C=C/[C@H](O)CCc1ccccc1)NCCO`: the Ki at Cannabinoid receptor 1 [1] is 740 nM; at Cannabinoid receptor 2 [4], more than 1000 nM; on Cannabinoid receptor 1 [5], 740 nM; at Cannabinoid receptor 2 [6] it was more than 1000 nM. Moreover, the IC50 (in assay [2]; in [3]; against Monoglyceride lipase; in assay [7]) was more than 100000 nM in each case.
For the compound `CCCCC[C@H](O)/C=C/[C@H]1[C@H](O)CC(=O)[C@@H]1C/C=C\CCCC(=O)O`, the outcome in assay [8], in assay [9] and in [10] was Active.
